Data published in patent publication US11149014B2, “Method for treating pain or associated condition or symptom” (priority 2014, dated 2021).
Where “and” joins values, the source holds several entries; their conditions need not be identical. Equal values may be shown once. Where a name gives a salt, the structure may show the parent alone.

Experiments:
TNFα = TNFα levels in sera of zymosan-injected Sabra mice (Elisa); type: in vivo; conditions: 24 hrs after application
Method: (§1) Activity of HU-436 given orally were assayed in Sabra mice. Zymosan injected to mice left hind paw, induced inflammation, TNF (tumor necrosis factor) in the serum as well as pain. During 24 h, the inflammatory paw swelling response was assayed by caliper, whereas the pain in the hind paw, was determined by Von Frey monofiber instrument.
(§2) Sabra female, mice 6-7 weeks old, were employed. Zymosan 0.6 mgr in 40 micro-liters was injected into the left hind paw. Immediately thereafter 20 30, 50 or 100 mg/kg HU436 dissolved in olive oil, in 200 μl—was given orally. Two, six and twenty-four hours thereafter, the injected left hind paw of the mice (total 5-8 mice/treatment), were examined both for swelling (Inflammation) and pain (Von Frey). The levels of TNFα in the sera of Sabra mice were determined by Elisa, 24 hrs after HU-436 application.

Female sabra mice = assay: Forced swimming test (FST) for depressive effect; type: in vivo; conditions: for moment/kicking per minute score, Mean: mean of last 4 min
Method: To find out whether HU436 has depressive effects on mice behavior—a forced swimming test (FST) was adopted.
Female sabra mice 6-8 weeks old were employed. Measurement of locomotor activity in mice movements were counted for 6 minutes.
Forced Swimming test (FST): The forced swimming test employed was essential similar to that described in ((Pettit-Demoulier et al, (2005) Psychopharmacology 177:245-255;)
Mice were dropped individually into a glass aquarium (height […], diameter 10 cm) containing 10 cm of water and their activity was monitored for 6 minutes. Of the total 6 minutes only the last 4 minutes was recorded—the first 2 minutes were considered as time for habitation.
The mice were treated either with 5 mg/kg or 10 mg/kg of HU436 (ip). Mice were scored at 10 minutes 90 minutes or 180 minutes after administration. In addition to mice treated with vehicle as control, 1 mice was injected ip with 5 mg/kg CBD and scored 10 minutes later. The movements/kicking of the mice were counted and the data are presented in the attached Table 1.

Sabra mice [1] = assay: Zymosan-induced hind paw swelling (inflammation), caliper; type: in vivo
C57BL = assay: Preliminary toxicological studies in C57BL; type: in vivo, mice
Raw 264.7 cells = assay: Reactive oxygen intermediate (ROI) production by Raw 264.7 macrophages (luminol/zymosan chemiluminescence); type: cell-based, mice; conditions: Mus musculus, RAW264.7, read-out: inhibition of ROI generation
Method: (§3) Raw 264.7 cells, a monocytic-macrophage cell line derived from BALB/c mice, were obtained from American Type Culture collection (Rockville, Md.). The cells were cultured in Dulbecco's modified Eagle medium (DMEM) supplemented with 5% fetal calf serum (FCS) and sodium pyrovate, glutamine, and antibiotics. For activation, the cells were incubated with LPS (E. coli 1 μg/mL for 24 h, Sigma, Israel). These cells were applied for ROI and Nitric Oxide (NO) generation in-vitro.
Raw 264.7 cells were removed using a scrapper, washed, and re-suspended in Hanks balanced salt solution (without phenol red). For measurement of chemiluminescence, two luminometer tubes were each loaded with: 0.5 mL of cell suspension (5×10^5 cells), HU-436 (two separate doses in each tube of 40 μg/ml and 60 μg/ml), 10 μL luminol (Sigma) and 30 μL of zymosan (Sigma). The chemiluminescence in each tube was measured immediately thereafter by a luminometer (Biolumate LB 95, Berhold, Wilbad, Germany)

[2] = Weight loss Study 3: weight gain and food consumption of C57BL/6 mice; type: in vivo; conditions: for food consumption: after 1-3 weeks; for reduction in weight gain compared to the control group: three weeks
Method: C57BL/6 mice (8-9 weeks old, 16 gram, 5 mice/group) were injected (intra-peritoneal) with two doses of HU-436 (5 mg/Kg and 10 mg/Kg). The change in weight of mice was measured weekly for three weeks (FIGS. 8 and 9) from injection. In addition, a control group (wherein no dose was given) was monitored for comparison.

TNF = TNF level in serum of C57BL mice injected with LPS; type: in vivo; conditions: 30 mg/Kg injected together with LPS; 90 min after injection
Method: Three doses of HU-436 (10 mg/Kg, 20 mg/Kg and 30 mg/Kg) were each injected to three C57BL mice together with LPS. Ninety min fallowing the injections, the mice were bled and the TNF levels in the serum were determined.

TNF-α = TNF-α in supernatants of TG macrophages treated with LPS (ELISA); type: cell-based, mice; conditions: Mus musculus, Macrophage, 40 μg/ml, read-out: inhibition in TNF production
Method: Peritoneal cells were harvested from C57BL/6 female mice 4 days after intra-peritoneal injection of 1.5 mL of 3% thioglycollate medium (Difco). The cells (TG macrophages) were washed with phosphate-buffered saline, re-suspended in Dulbecco's modified Eagle medium (DMEM) supplemented with 5% fetal calf serum (FCS), and plated (1.2×10^5) in 96-microwell flat-bottom plates (Nunc, Roskide, Denmark). Following 2-3 h incubation at 37° C., the non-adherent cells were removed by intensive rinsing. About 95% of the adherent cells were macrophages. These cells were applied for studying TNF production in-vitro.
TNF-α in the supernatants of TG macrophages treated with HU-436 (doses of […]) and LPS was determined by ELISA (R&D) with Ab pairs from Biosource (Camarillo, Calif.). Procedures were carried out following the manufacturer's instructions.

[3] = Weight loss Study 2: weight change of normal Sabra mice; type: in vivo; conditions: 5 mg/Kg intra-peritoneal; 15 and 24 days
Method: Normal Sabra (mice 9-10 weeks old, about 32 gram, 7 mice/group) were injected (intra-peritoneal) with two doses of HU-436 (5 mg/Kg and 10 mg/Kg). The change in weight of mice was measured daily for 15 (FIG. 6) and 24 days (FIG. 7) from injection. In addition, a control group (wherein no dose was given) was monitored for comparison.

[4] = Weight loss Study 1: body weight of DBA/1 male mice injected Type II collagen for CIA; type: in vivo; conditions: 5 mg/Kg intra-peritoneal for 16 days from day 18; 34 days
Method: DBA/1 male mice (6 weeks old, 20 gram, 15 mice/group) were injected Type II collagen for CIA. On day 18, the mice were injected (intra-peritoneal) with the following doses, for 16 days:
Vehicle: ethanol: chremophor: saline (1:1:18)
Methrotrexate (MTX): 0.5 mg/Kg.
In addition, a control group (wherein no dose was given) was monitored for comparison. The changes in body weight (in grams) was measured daily for a period of 34 days from injection. FIG. 4 (days 18-34) and FIG. 5 (overall change from day 1 to 34), show the changes in body weight of mice over a period of 34 days from injection.

RAW 264.7 macrophages = assay: Nitric oxide (NO) production by LPS-activated RAW 264.7 macrophages (Griess); type: cell-based, mice; conditions: Mus musculus, RAW264.7; 60 μg/ml; LPS 1 μg/mL, 24 h
Method: as §3
RAW 264.7 macrophages were treated with various doses (1-60 μg/ml) of HU-436 followed the addition of 1 μg/mL of lipopolysaccharide (LPS, E. coli, Sigma) for activation. The macrophages were then cultivated in a humid atmosphere with 5% CO2 for 24 h. NO generation was determined by measuring the nitrite accumulated in the supernatants (100 μL) of the HU-436-treated macrophages as follows: An equal volume (100 μL) of Griess reagent (1% sulfanilamide, 0.1% naphthalene diamine HCl, 2% H3PO4) was added to each supernatant. Following 10 min of incubation at room temperature, the color production was measured at 550 nm with an ELISA reader. The concentration of nitrite was calculated according to a standard curve. The results are presented in FIG. 1 wherein inhibition of more than 50% was found fallowing incubation of the cells with 60 μg/ml HU-436.

Sabra mice [5] = assay: Zymosan-induced hind paw pain, Von Frey monofiber instrument; type: in vivo; conditions: for pain reduction: 2, 6, 24 h
Method: as §1, §2
Pain, was assayed by employing Von-Frey monofiber instrument. The higher the log value measured, the more force (g) one has to apply to cause pain=higher analgesia is being expressed=less pain.

[6] = 5 mg/kg, 10 min after ip, minute 3 in tank
[7] = 5 mg/kg, 10 min after ip, minute 4 in tank
[8] = 5 mg/kg, 10 min after ip, minute 5 in tank
[9] = 5 mg/kg, 10 min after ip, minute 6 in tank

For `C=C(C)[C@@H]1CCC(C)=C[C@H]1c1c(O)cc(CCCCC)cc1O` [CBD, Cannabidiol, reference compound], the “reduction of TNFα levels in the sera” value (TNFα) was 48-58%, the “moment/kicking per minute score, Mean” value (Female sabra mice; 5 mg/kg, 10 min after ip) was 65 per minute and the “moment/kicking per minute score” value (Female sabra mice; [6]) was 76 per minute. The “moment/kicking per minute score” value (Female sabra mice; [7]) was 75 per minute, the “moment/kicking per minute score” value (Female sabra mice; [8]) was 48 per minute and the “moment/kicking per minute score” value (Female sabra mice; [9]) was 60 per minute. The “potency in reducing inflammation relative to HU-436” value (Sabra mice [1]; all experiments) was “scientifically more potent than HU-436 in reducing inflammation”.
In the case of `C=C(C)C1CCC(C)=CC1c1c(OC)cc(CCCCC)cc1OC(=O)CCN1CCOCC1` [HU-436, Maleate Salt of 3-methoxy-2-((6R)-3-methyl-6-(prop-l-en-2-yl)cyclohex-2-enyl)-5-pentylphenyl 3-morpholinopropanoate], the toxicity (C57BL; 50 mg/Kg) is reported as “non-toxic”, the toxicity (C57BL; 100 mg/Kg) is reported as “non-toxic” and the inhibition at 40 µg/mL (Raw 264.7 cells; 40 μg/ml) is reported as 20%. For the same compound, the inhibition at 60 µg/mL (Raw 264.7 cells; 60 μg/ml) was 28%, the food consumption ([2]; 5 mg/Kg intra-peritoneal) was “reduction in food consumption” and the “reduction in weight gain compared to the control group” value ([2]; 5 mg/Kg intra-peritoneal) was “about 50%”. For the same compound, the food consumption ([2]; 10 mg/Kg intra-peritoneal) was “reduction in food consumption”, the “reduction in weight gain compared to the control group” value ([2]; 10 mg/Kg intra-peritoneal) was “about 50%” and the “inhibition in TNF level in the serum” value (TNF) was 46%. The “reduction of TNFα levels in the sera” value (TNFα) was “up to 20%”, the inhibition at 40 µg/mL (TNF-α) was greater than 60% and the “changes in weight gain” value [3] was “significantly decreased the changes in weight gain”. For the same compound, the “moment/kicking per minute score, Mean” value (Female sabra mice; 5 mg/kg, 10 min after ip) was 81 per minute, the “moment/kicking per minute score” value (Female sabra mice; [6]) was 84 per minute and the “moment/kicking per minute score” value (Female sabra mice; [7]) was 96 per minute. The “moment/kicking per minute score” value (Female sabra mice; [8]) was 76 per minute, the “moment/kicking per minute score” value (Female sabra mice; [9]) was 68 per minute and the “moment/kicking per minute score, Mean” value (Female sabra mice; 5 mg/kg, 90 min after ip) was 75 per minute. The “moment/kicking per minute score” value (Female sabra mice; 5 mg/kg, 90 min after ip, minute 3 in tank) was 70 per minute, the “moment/kicking per minute score” value (Female sabra mice; 5 mg/kg, 90 min after ip, minute 4 in tank) was 85 per minute and the “moment/kicking per minute score” value (Female sabra mice; 5 mg/kg, 90 min after ip, minute 5 in tank) was 72 per minute. The “moment/kicking per minute score” value (Female sabra mice; 5 mg/kg, 90 min after ip, minute 6 in tank) was 73 per minute, the “moment/kicking per minute score, Mean” value (Female sabra mice; 10 mg/kg, 10 min after ip) was 75 per minute and the “moment/kicking per minute score” value (Female sabra mice; 10 mg/kg, 10 min after ip, minute 3 in tank) was 80 per minute. The “moment/kicking per minute score” value (Female sabra mice; 10 mg/kg, 10 min after ip, minute 4 in tank) was 84 per minute, the “moment/kicking per minute score” value (Female sabra mice; 10 mg/kg, 10 min after ip, minute 5 in tank) was 64 per minute and the “moment/kicking per minute score” value (Female sabra mice; 10 mg/kg, 10 min after ip, minute 6 in tank) was 72 per minute. The “moment/kicking per minute score, Mean” value (Female sabra mice; 10 mg/kg, 180 min after ip) was 77 per minute, the “moment/kicking per minute score” value (Female sabra mice; 10 mg/kg, 180 min after ip, minute 3 in tank) was 76 per minute and the “moment/kicking per minute score” value (Female sabra mice; 10 mg/kg, 180 min after ip, minute 4 in tank) was 52 per minute. The “moment/kicking per minute score” value (Female sabra mice; 10 mg/kg, 180 min after ip, minute 5 in tank) was 90 per minute, the “moment/kicking per minute score” value (Female sabra mice; 10 mg/kg, 180 min after ip, minute 6 in tank) was 90 per minute and the “moment/kicking per minute score, Mean” value (Female sabra mice; 10 mg/kg, time after ip not given) was 81 per minute and 83 per minute. For the same compound, the “moment/kicking per minute score” value (Female sabra mice; 10 mg/kg, time after ip not given, minute 3 in tank) was 79 per minute and 74 per minute, the “moment/kicking per minute score” value (Female sabra mice; 10 mg/kg, time after ip not given, minute 4 in tank) was 80 per minute and 64 per minute and the “moment/kicking per minute score” value (Female sabra mice; 10 mg/kg, time after ip not given, minute 5 in tank) was 89 per minute and 112 per minute. The “moment/kicking per minute score” value (Female sabra mice; 10 mg/kg, time after ip not given, minute 6 in tank) was 76 per minute and 83 per minute, the depressive activity (Female sabra mice; 5 or 10 mg/kg ip) was “did not cause depressive activity” and the “reduction of body weight (weight gain of control group = 100% gain)” value [4] was “up to 61%”. The inhibition at 60 µg/mL (RAW 264.7 macrophages) was greater than 50%, the pain reduction (Sabra mice [5]; 20 mg/kg given orally) was “marked pain reduction” and the pain reduction (Sabra mice [5]; 30 mg/kg given orally) was “marked pain reduction”. For the same compound, the pain reduction (Sabra mice [5]; 50 mg/kg given orally) was “marked pain reduction”, the “pain reduction compared to Tremadol (5 mg/kg intra-peritoneally)” value (Sabra mice [5]; 50 mg/kg, after 24 hr) was “more potent after 24 hr than Tremadol” and the pain reduction (Sabra mice [5]; 100 mg/kg given orally) was “marked pain reduction”. For the same compound, the “pain reduction compared to Aspirin” value (Sabra mice [5]; HU-436 30 or 50 mg/kg vs Aspirin 50 (and 100) mg/kg, 24 hr) was “the most potent in reducing pain for 24 hr”, the “long lasting pain reduction compared to Cannabidiol, Aspirin” value (Sabra mice [5]; conclusion) was “more effective than Cannabidiol, Aspirin in reducing long lasting pain” and the “inflammatory response (swelling) compared to controls” value (Sabra mice [1]; 20 mg/kg ip injection) was “reduction in inflammatory response (swelling) was observed compared to controls”. The “inflammation compared to the controls” value (Sabra mice [1]; 30 mg/kg given orally) was “reduced inflammation compared to the controls”, the “inflammation compared to the controls” value (Sabra mice [1]; 50 mg/kg given orally) was “reduced inflammation compared to the controls” and the anti-inflammation properties (Sabra mice [1]; conclusion) was “moderate anti-inflammation properties”.
